Assay results taken from ChEMBL document CHEMBL5727833, “MALT1 inhibitors and uses thereof” (2020).

Molecular target: T1, Mucosa-associated lymphoid tissue lymphoma translocation protein 1 (Homo sapiens, UniProt Q9UDY8)
T1 sequence (Q9UDY8 whole entry): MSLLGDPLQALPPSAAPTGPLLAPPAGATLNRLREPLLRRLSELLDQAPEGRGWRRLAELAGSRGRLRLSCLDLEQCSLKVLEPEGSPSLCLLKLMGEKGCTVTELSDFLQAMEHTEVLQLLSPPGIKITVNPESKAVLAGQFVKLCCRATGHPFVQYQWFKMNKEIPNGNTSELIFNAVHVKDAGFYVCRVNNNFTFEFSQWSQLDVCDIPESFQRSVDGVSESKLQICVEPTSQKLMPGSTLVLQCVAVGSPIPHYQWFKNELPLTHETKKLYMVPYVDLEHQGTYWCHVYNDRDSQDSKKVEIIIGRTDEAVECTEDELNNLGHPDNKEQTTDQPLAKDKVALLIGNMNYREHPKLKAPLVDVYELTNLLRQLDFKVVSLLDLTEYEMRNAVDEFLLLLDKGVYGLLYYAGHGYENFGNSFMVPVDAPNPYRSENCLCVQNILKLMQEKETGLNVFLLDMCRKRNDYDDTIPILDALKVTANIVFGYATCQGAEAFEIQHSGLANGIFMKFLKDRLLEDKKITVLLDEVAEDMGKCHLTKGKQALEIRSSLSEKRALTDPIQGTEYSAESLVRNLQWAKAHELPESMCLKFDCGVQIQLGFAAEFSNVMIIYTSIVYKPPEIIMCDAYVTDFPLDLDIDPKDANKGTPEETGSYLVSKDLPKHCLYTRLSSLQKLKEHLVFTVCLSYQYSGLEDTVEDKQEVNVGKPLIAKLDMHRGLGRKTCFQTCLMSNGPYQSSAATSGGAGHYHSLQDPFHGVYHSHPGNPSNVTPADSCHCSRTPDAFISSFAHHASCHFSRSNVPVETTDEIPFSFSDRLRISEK
Test: Biological Assay: For exemplary compounds of the disclosure, Ki for inhibition of MALT1 was measured (Table E11). A concentration of 100 nM MALT1 was used for the assay.

| Structure (SMILES) | Ki [µM] |
| --- | --- |
| N=C(N)NCCC[C@H](NC(=O)[C@@H]1CCCN1C(=O)[C@H](Cc1cccnc1)NC(=O)c1ccc(Br)cc1)C(=O)CF | > 1 |
| CC(C)[C@H](NS(=O)(=O)c1ccc(Br)cc1)C(=O)N1CCC[C@H]1C(=O)N[C@@H](CCCNC(=N)N)C(=O)CF | 0.066 |
| CC(C)[C@H](NC(=O)c1ccc(Br)c(F)c1)C(=O)N1CCC[C@H]1C(=O)N[C@@H](CCCNC(=N)N)C(=O)CF | 0.078 |
| Cc1nc(C(=O)N[C@H](C(=O)N2CCC[C@H]2C(=O)N[C@@H](CCCNC(=N)N)C(=O)CF)C(C)C)cs1 | 0.052 |

Now those with a lower Ki, led by results:

| Ki [µM] | Structure (SMILES) |
| --- | --- |
| 0.034 | N=C(N)NCCC[C@H](NC(=O)[C@@H]1C[C@@H](O)CN1C(=O)[C@@H](NC(=O)c1ccc(Br)cc1)C1CCCCC1)C(=O)CF |
| 0.022 | CC(C)c1ccc(C(=O)N[C@H](C(=O)N2CCC[C@H]2C(=O)N[C@@H](CCCNC(=N)N)C(=O)CF)C(C)C)cc1 |
| 0.013 | CC(C)[C@H](NC(=O)c1ccc(Br)c(C#N)c1)C(=O)N1CCC[C@H]1C(=O)N[C@@H](CCCNC(=N)N)C(=O)CF |
| 0.024 | CC(C)[C@H](NC(=O)Nc1ccccc1Cl)C(=O)N1CCC[C@H]1C(=O)N[C@@H](CCCNC(=N)N)C(=O)CF |
